Assay results taken from EPA's ToxValDB 9.5 (doi:10.2903/j.efsa.2017.4790).

What was measured:
Apis mellifera = conditions: acute, mortality
Colinus virginianus = conditions: acute, oral, mortality
Folsomia candida = conditions: chronic/long-term; mortality
Rattus norvegicus = conditions: for LD50: acute, mortality
Canidae = conditions: chronic; duration: 1 years; oral; Dog Other; organ weight
Daphnia magna = conditions: chronic/long-term; duration: 21 days; reproduction
Oncorhynchus mykiss = conditions: chronic/long-term; duration: 21 days; behavior

SMILES	NOAEL (Anas platyrhynchos; chronic/long-term)	LD50 (Apis mellifera; dermal)	LD50 (Apis mellifera; oral, unspecified)	LD50 (Colinus virginianus; diet)	LD50 (Colinus virginianus)	NOEC (Folsomia candida)	LD50 (Rattus norvegicus; M/F)	NOAEL (Anas platyrhynchos; reproductive)	NOAEL (Canidae)	LD50 (Rattus norvegicus; F)	NOAEL (Rattus norvegicus; developmental, development)	NOEC (Daphnia magna)	NOEC (Oncorhynchus mykiss)	NOAEL (Rattus norvegicus; reproduction developmental, body weight)
CCCC(=O)Oc1c(Br)cc(C#N)cc1Br [Bromoxynil butyrate]	15.9 mg/kg-day	199 µg/piece	76.4 µg/piece	> 190 mg/kg-day	420 mg/kg-day	125 mg/kg	116 mg/kg-day							
CCCCCCC(=O)Oc1c(Br)cc(C#N)cc1Br [Bromoxynil heptanoate]		> 201 µg/piece	> 201 µg/piece	1900 mg/kg-day	379 mg/kg-day	70.5 mg/kg		15.9 mg/kg-day	0.3 mg/kg-day	292 mg/kg-day	4 mg/kg-day			
N#Cc1cc(Br)c(O)c(Br)c1 [Bromoxynil]						56 mg/kg		10.9 mg/kg-day	0.3 mg/kg-day		4 mg/kg-day	3.1 mg/L	2 mg/L	3.39 mg/kg-day
